Like-named read-outs stand apart in the source and are kept apart here. Values belong to the compound of their own block, whether it stands above or below them.
How the values were obtained:
[1] = Intramuscular pharmacokinetic study of chiral isomers 1 and 2; format: in vivo, male Sprague Dawley (SD) rats; settings: IM 20 mg/kg
Procedure: In vivo pharmacokinetic study was performed in male Sprague Dawley (SD) rats (n=4). Intramuscular (IM) formulation of compound 1 Chiral 1 and 2 were prepared by individually dissolving accurately weighed quantity of compound 1, chiral isomers 1 and 2 (20 mg) in 1 mL of olive oil followed by vortexing for 2 min and sterilize through syringe filter. Blood samples were collected from the retro orbital plexus of rats under light ether anesthesia into microfuge tubes containing heparin as an anti-coagulant at 0.25, 0.5, 1, 3, 5, 7, 9, 24, 30, 48 and 72 hours post-dosing after intramuscular dose. Plasma sample was harvested by centrifuging the blood at 13000 rpm for 10 min on Sigma 1-15 K (Frankfurt, Germany) and stored frozen at −70±10° C. until bioanalysis. Each plasma sample (100 μl) was processed using protein precipitation method using 200 μl acetonitrile containing medicarpine as internal standard (I.S.) as protein precipitant, and 10 μl of the supernatant was injected for LC-MS/MS.

[2] = Intramuscular pharmacokinetic study of bulk compound 1 and chiral isomers; format: in vivo, male Sprague Dawley (SD) rats; settings: IM 20 mg/kg
Procedure: In vivo pharmacokinetic study was performed in male Sprague Dawley (SD) rats (n=4). Intramuscular (IM) formulation of bulk of compound 1 as well as chiral isomer-1 and chiral isomer-2 was prepared by dissolving accurately weighed quantity of compound 1 (20 mg) in 1 mL of olive oil followed by vortexing for 2 min and sterilize through syringe filter. Blood samples were collected from the retro orbital plexus of rats under light ether anesthesia into microfuge tubes containing heparin as an anti-coagulant at 0.25, 0.5, 1, 3, 5, 7, 9, 24, 30, 48 and 72 hours post-dosing after intramuscular dose. Plasma sample was harvested by centrifuging the blood at 13000 rpm for 10 min on Sigma 1-15 K (Frankfurt, Germany) and stored frozen at −70±10° C. until bioanalysis. Each plasma sample (100 μl) was processed using protein precipitation method using 200 μl acetonitrile containing medicarpine as internal standard (I.S.) as protein precipitant, and 10 μl of the supernatant was injected for LC-MS/MS.

HUVECs = assay: Capillary-like tube formation assay (tubulogenesis); format: cell-based, human; settings: for tubule formation: 6 h; for IC50: Homo sapiens, HUVEC, read-out: IC50 value
Procedure: FIG. 2 represents effect of Compound 1 on capillary tube formation of HUVECs. Endothelial cells in Matrigel were incubated with ECM basal medium in the presence of compound 1 at the indicated concentrations for 6 h. Cell viability was assessed by Calcein-AM dye added few min. before the completion of 6 h. then photographs at 10×magnification were taken using an inverted microscope. The tubule length of HUVECs was quantified by Leica QWin software. Tubule network formation is expressed as a percentage of that vehicle (0.1% DMSO) treated cells (control).
FIG. 9 represents effect of racemic mixture (chiral isomer 1-1 and chiral isomer 2-1) of Compound 1 on capillary tube formation of HUVECs. Endothelial cells seeded in matrigel were incubated at the indicated concentrations of compound 1 racemic mixtures (1-1 and 2-1) with ECM basal medium for 6 h. Calcein-AM treatment was added to the ECs few minutes before completion of 6 h and pictures were captured using an inverted microscope at 10×magnification. The tubular structures of HUVECs were measured using Leica QWin software and tubulogenesis was expressed as a % of that vehicle (0.1% DMSO) treated cells (control) well.
HUVEC cells were incubated with or without sunitinib (20 nM) for 6 h at indicated concentrations of chiral isomers of Compound 1 (1-1 and 2-1). Photographs were taken using an inverted microscope at 10×magnification after Calcein-AM treatment to the ECs few minutes before completion of 6 h. The tubule length of HUVECs was quantified by Leica QWin software represented as a % of that vehicle (0.1% DMSO) treated cells (control) well.
To examine the effect of Compound 1 on angiogenesis, capillary tube formation assay was performed on regular or reduced growth factor Matrigel, taking VEGF (50 ng/mL) treated cells as a positive control and sunitinib (50 nM) as a negative control (FIG. 2). HUVECs seeded onto the matrigel with compound 1 at different concentrations of (10 μM, 5 μM, 1 μM, 800 nM, 500 nM, 250 nM, 125 nM, 75 nM, 50 nM, 25 nM and 10 nM) were incubated for six hours.
HUVECs (Human Umbilical Vein Endothelial Cells) were seeded onto the pre-coated matrigel (CORNING; 354230) in 96 wells plate at the rate of 11000 cells/well in incomplete ECM basal medium. Control group received vehicle, VEGF at 50 ng/mL as a positive and sunitinib at 50 nM as a negative control were used. Compound 1 at different dose concentrations (10 μM, 5 μM, 1 μM, 800 nM, 500 nM, 250 nM, 100 nM, 75 nM, 50 nM and 25 nM) were employed on seeded HUVECs in incomplete medium. Post 6 h of incubation Calcein-AM (Invitrogen) was added to all the respective groups and then the tubule pattern was observed and photographs were taken using an inverted fluorescent microscope (DM 6000, Leica Microsystems, USA). Relative tubule lengths were measured using Leica Q-Win software version 3.5.1. (Leica Microsystems, Switzerland).

[3] = male, Sprague-Dawley, rat, plasma, mean ± S.D., n = 4
[4] = male, Sprague-Dawley, rat, plasma, mean ± S.D., n = 4, read-out: AUC0-72
[5] = male, Sprague-Dawley, rat, plasma, mean ± S.D., n = 4, read-out: Cmax
[6] = male, Sprague-Dawley, rat, plasma, intramuscular, 0.25 h
[7] = male, Sprague-Dawley, rat, plasma, intramuscular, 0.5 h
[8] = male, Sprague-Dawley, rat, plasma, intramuscular, 1 h
[9] = male, Sprague-Dawley, rat, plasma, intramuscular, 3 h
[10] = male, Sprague-Dawley, rat, plasma, intramuscular, 5 h
[11] = male, Sprague-Dawley, rat, plasma, intramuscular, 7 h
[12] = male, Sprague-Dawley, rat, plasma, intramuscular, 9 h
[13] = male, Sprague-Dawley, rat, plasma, intramuscular, 24 h
[14] = male, Sprague-Dawley, rat, plasma, intramuscular, 30 h
[15] = male, Sprague-Dawley, rat, plasma, intramuscular, 48 h
[16] = male, Sprague-Dawley, rat, plasma, intramuscular, 72 h
[17] = endothelial tubule network assay, anti-angiogenic activity

Cl ([1]; mean ± S.D., n = 4): 2.67 ± 0.5 mL/min/kg
Vd ([1]; mean ± S.D., n = 4): 3.2 ± 0.84 L/kg
AUC(0-inf) [1, 3]: 121 ± 24.1 µg·h/mL
half-life [1, 3]: 13.3 ± 1.51 h
AUC(0-t) [1, 4]: 118 ± 24.8 µg·h/mL
Cmax [1, 5]: 4810 ± 1560 ng/mL
Tmax ([1]; male, Sprague-Dawley, rat, plasma, read-out: Tmax): 9 h
Cl ([2]; mean ± S.D., n = 4): 3.03 ± 0.415 mL/min/kg
Vd ([2]; mean ± S.D., n = 4): 4.273 ± 1.167 L/kg
concentration at 0.25 h [2, 6]: 1680 ± 1060 ng/mL
concentration at 0.5 h [2, 7]: 2090 ± 1650 ng/mL
concentration at 1 h [2, 8]: 2580 ± 1960 ng/mL
concentration at 3 h [2, 9]: 2560 ± 590 ng/mL
concentration at 5 h [2, 10]: 2460 ± 880 ng/mL
concentration at 7 h [2, 11]: 2120 ± 940 ng/mL
concentration at 9 h [2, 12]: 3440 ± 260 ng/mL
concentration at 24 h [2, 13]: 2470 ± 570 ng/mL
concentration at 30 h [2, 14]: 1730 ± 150 ng/mL
concentration at 48 h [2, 15]: 593 ± 220 ng/mL
concentration at 72 h [2, 16]: 109 ± 40 ng/mL
AUC(0-inf) [2, 3]: 111 ± 15 µg·h/mL
half-life [2, 3]: 16 ± 2.38 h
AUC(0-t) [2, 4]: 108 ± 15.9 µg·h/mL
Cmax [2, 5]: 3910 ± 847 ng/mL
MRT ([2]; male, Sprague-Dawley, rat, plasma, mean ± S.D., n = 4, read-out: MRT): 21 ± 0.463 h
Tmax ([2]; male, Sprague-Dawley, rat, plasma, mean ± S.D., n = 4, read-out: Tmax): 6.33 ± 4.62 h
Structure (SMILES): CCOC(=O)[C@H]1N=C1CCc1ccc(OC)cc1 (single isomer, unassigned) [Chiral isomer (1-1)]

concentration at 0.25 h [1, 6]: 1520 ± 360 ng/mL
concentration at 0.5 h [1, 7]: 2150 ± 830 ng/mL
concentration at 1 h [1, 8]: 3020 ± 1330 ng/mL
concentration at 3 h [1, 9]: 3170 ± 940 ng/mL
concentration at 5 h [1, 10]: 3570 ± 100 ng/mL
concentration at 7 h [1, 11]: 3580 ± 750 ng/mL
concentration at 9 h [1, 12]: 4810 ± 1560 ng/mL
concentration at 24 h [1, 13]: 1930 ± 380 ng/mL
concentration at 30 h [1, 14]: 1550 ± 360 ng/mL
concentration at 48 h [1, 15]: 545 ± 90 ng/mL
concentration at 72 h [1, 16]: 110 ± 40 ng/mL
Structure (SMILES): CCOC(=O)[C@H]1N=C1CCc1ccc(OC)cc1 [Chiral isomer (1-1)]
tubule formation (HUVECs; 100 nM combined with sunitinib at 20 nM): approximately 15%
tubule formation (HUVECs; 250 nM): 100%
tubule formation (HUVECs; 500 nM): 50%
tubule formation (HUVECs; 1 μM): 50%

Structure (SMILES): COc1ccc(CCC2=NC2C#N)cc1 (stereo not shown) [Compound 48, 3-(4-Methoxyphenethyl)-2H-azirine-2-carbonitrile]
IC50 (HUVECs): 250 nM

Structure (SMILES): CCOP(=O)(OCC)C1N=C1CCc1ccc(OC)cc1 (stereo not shown) [Compound 49, Diethyl (3-(4-methoxyphenethyl)-2H-azirin-2-yl)phosphonate]
IC50 (HUVECs): 250 nM

Structure (SMILES): CCOC(=O)C1N=C1CCc1ccc(OC2CCOC2)cc1 (stereo not shown) [Compound 50, Ethyl 3-(4-((tetrahydrofuran-3-yl)oxy)phenethyl)-2H-azirine-2-carboxylate]
IC50 (HUVECs; [17]): 250 nM

Structure (SMILES): COc1ccc(CCC2=NC2c2nnn[nH]2)cc1 (stereo not shown) [Compound 51, 5-(3-(4-Methoxyphenethyl)-2H-azirin-2-yl)-1H-tetrazole]
IC50 (HUVECs; [17]): 100 nM
remarks (HUVECs; remark on IC50 versus sunitinib): comparable to sunitinib

Reference: patent publication US20230234920A1, “Azirine Containing Compounds as Anti-Angiogenesis Agents and a Process for the Preparation Thereof” (COUNCIL OF SCIENTIFIC & INDUSTRIAL RESEARCH, priority 2020, published 2023)
